Measured values taken from US5663186A, “Treatment of atherosclerosis with angiotensin II receptor blocking imidazoles” (Merck & Co., Inc., priority 1995, dated 1997).
Where a name gives a salt, the structure may show the parent alone.

Columns and labels:
conscious dogs = assay: Hypotensive effects and inhibition of AII pressor response before and after furosemide in conscious dogs; assay type: in vivo, dog
Renal Hypertensives Rats = assay: Antihypertensive effects in renal hypertensive rats (left renal artery ligation); assay type: in vivo, rat
Protocol: This procedure increases blood pressure by increasing renin production with consequent elevation of AII levels. Compounds are administered orally at 100 mg/kg and/or intravenously via a cannula in the jugular vein at 10 mg/kg. Arterial blood pressure is continuously measured directly through a carotid artery cannula and recorded using a pressure transducer and a polygraph. Blood pressure levels after treatment are compared to pretreatment levels to determine the antihypertensive effects of the compounds (See Table 1).
Compound listed in Table 2 was tested in the same manner as described for Table 1, except that in the test for antihypertensive effects in renal hypertensive rats, the compounds were administered orally at 30 mg/kg and intravenously at 3 mg/kg.

dogs = settings: cited from earlier work
AII = settings: cited from earlier work

CCCCc1nc(Cl)c(CO)n1Cc1ccc(-c2ccccc2-c2nnn[nH]2)cc1 [2-butyl-4-chloro-1-[2'-(1H-tetrazol-5-yl)biphenyl-4-yl)methyl]-5-hydroxymethylimidazole sodium salt]
inhibition of pressor response to AII after furosemide (conscious dogs; furosemide-treated dogs, cumulative iv): inhibited the pressor response to AII at the two higher doses | decrease in blood pressure after furosemide (conscious dogs; furosemide-treated dogs, cumulative iv 0.3 to 3 mg/kg): significant decrease in blood pressure in a dose-dependent manner | blood pressure lowering (conscious dogs; normotensive conscious dogs (n=4), cumulative iv 0.3 to 3 mg/kg, before furosemide): did not lower blood pressure | inhibition of pressor response to AII (conscious dogs; normotensive conscious dogs, cumulative iv 0.3 to 3 mg/kg, AII 0.1 μg/kg iv, 10 min post dose, before furosemide): effective in inhibiting the pressor response to AII

CCCCc1nc(Cl)c(C(=O)O)n1Cc1ccc(-c2ccccc2-c2nnn[nH]2)cc1 [Compound 2, 2-n-butyl-4-chloro-1-[(2'-(tetrazol-5-yl)-1,1'-biphenyl-4-yl)-methyl]-1H-imidazole-5-carboxylic acid]
Antihypertensive Effects in Renal Hypertensives Rats, Intravenous Activity (Renal Hypertensives Rats; intravenous, 3.0 mg/kg or less): + (Significant decrease in blood pressure at 3.0 mg/kg or less) | Antihypertensive Effects in Renal Hypertensives Rats, Oral Activity (Renal Hypertensives Rats; oral, 30 mg/kg or less): + (Significant decrease in blood pressure at 30 mg/kg or less)

CNCC(=O)N[C@@H](CCCN=C(N)N)C(=O)N[C@H](C(=O)N[C@@H](Cc1ccc(O)cc1)C(=O)N[C@H](C(=O)N[C@@H](Cc1cnc[nH]1)C(=O)N1CCC[C@H]1C(=O)N[C@@H](C)C(=O)O)C(C)C)C(C)C [Saralasin, [Sar^1, Ala^8] AII]
effect on renal vasoconstrictor effect of indomethacin and meclofenamate (dogs; dogs): inhibit the renal vasoconstrictor effect of indomethacin and meclofenamate | lowering of arterial pressure (AII; mammals and man, when the (elevated) pressure is dependent on circulating AII): lower arterial pressure in mammals and man | oral effectiveness (AII; oral doses): oral doses being ineffective | duration of pharmacological effects (AII; parenteral administration): relatively short-lasting | antagonism of the actions of AII (AII; pithed rats): one of the most potent competitive antagonists of the actions of AII | agonistic (pressor) effects (AII; when the pressure is not sustained by AII): generally elicits pressor effects when the pressure is not sustained by AII

C[C@H](CS)C(=O)N1CCC[C@H]1C(=O)O [captopril]
effect on renal vasoconstrictor effect of indomethacin (dogs; dogs with non-hypotensive hemorrhage): reverse the renal vasoconstrictor effect of indomethacin

NS(=O)(=O)c1cc(C(=O)O)c(NCc2ccco2)cc1Cl [furosemide, reference compound]
Plasma renin activity (PRA) (conscious dogs; dogs (three), furosemide 10 mg/kg im at 18 and 2 hours before, PRA four days earlier 1.5±0.5): 19.9±7.2 ng AI/ml/hr
